Read-outs that look alike come from different tables or passages of the source.
System: SARS-CoV-2-specific CD4+ T cells (OX40+CD137+) in PBMC
Assay type: cell-based, human
[1] = CD4+ T cell epitopes identified by AIM assay, share of donors responding
[2] = CD4+ T cell epitopes identified by AIM assay, sum of response per responding donor
[3] = CD4+ T cell epitopes identified by AIM assay, total response
[4] = CD4+ T cell epitopes identified by AIM assay, percent of tested donors responding
[5] = CD4+ T cell epitopes identified by AIM assay, total response summed over donors

Sequence | Frequency of response (%) [1] [%] | Magnitude by # of responding donors [2] | Sum of response [3] | Frequency of response (%) [4] [%] | Sum of response [5] | Frequency of response (%) | Magnitude by # of responding donors | Sum of response
TNCYDYCIPYNSVTS | 7 | 402 | 402 |  |  |  |  | 
LPPLLTDEMIAQYTS | 9 | 153 | 153 |  |  |  |  | 
FLHFLPRVFSAVGNI | 9 | 491 | 491 |  |  |  |  | 
FLGIITTVAAFHQEC [SEQ ID NO 254] |  | 185 |  | 9 | 185 |  |  | 
AGNGGDAALALLLLD |  |  |  |  |  | 21 | 416 | 1249
CNLLLLFVTVYSHLL | 18 | 212 | 424 |  |  |  |  | 
QRNFYEPQIITTDNT | 7 | 302 | 302 |  |  |  |  | 
APHGVVFLHVTYVPA |  | 293 |  | 7 | 293 |  |  | 
PQNQRNAPRITFGGP | 6 | 222 | 222 |  |  |  |  | 
RCSFYEDFLEYHDVR |  |  |  |  |  | 36 | 174 | 696
WNSNNLDSKVGGNYN | 9 | 101 | 101 |  |  |  |  | 
VFAQVKQIYKTPPIK |  | 268 |  | 8 | 268 |  |  | 
IGINITRFQTLLALH |  | 177 |  | 9 | 177 |  |  | 
HKNNKSWMESEFRVY | 9 | 572 | 572 |  |  |  |  | 
SNFRVQPTESIVRFP |  | 243 |  | 9 | 243 |  |  | 
STECSNLLLQYGSFC | 8 | 314 | 314 |  |  |  |  | 

Sequence | Frequency of response (%) [1] [%] | Magnitude by # of responding donors [2] | Sum of response [3] | Frequency of response (%) [4] [%] | Sum of response [5] | Frequency of response (%) | Magnitude by # of responding donors | Sum of response
ASRELKVTFFPDLNG | 15 | 162 | 324 |  |  |  |  | 
HTTDPSFLGRYMSAL | 18 | 2461 | 4921 |  |  |  |  | 
QKKQQTVTLLPAADL | 7 | 712 | 712 |  |  |  |  | 
SFLAHIQWMVMFTPL | 8 | 554 | 554 |  |  |  |  | 
TRFQTLLALHRSYLT |  | 2172 |  | 18 | 4343 |  |  | 
RLFARTRSMWSFNPE | 8 | 141 | 141 |  |  |  |  | 
SDVLYQPPQTSITSA | 8 | 394 | 394 |  |  |  |  | 
CVADYSVLYNSASFS | 8 | 210 | 210 |  |  |  |  | 
KKRWQLALSKGVHFV [SEQ ID NO 250] |  | 144 |  | 18 | 287 |  |  | 
RVAGDSGFAAYSRYR | 15 | 139 | 278 |  |  |  |  | 
HWFVTQRNFYEPQII | 7 | 598 | 598 |  |  |  |  | 
LLFNKVTLADAGFIK | 8 | 297 | 297 |  |  |  |  | 
YRINWITGGIAIAMA | 58 | 345 | 2417 |  |  |  |  | 
GINASVVNIQKEIDR |  | 267 |  | 8 | 267 |  |  | 
ARDLICAQKFNGLTV | 8 | 232 | 232 |  |  |  |  | 
